From ChEMBL document CHEMBL5104196, “Discovery of Novel, Potent, and Selective Small-Molecule Menin-Mixed Lineage Leukemia Interaction Inhibitors through Attempting Introduction of Hydrophilic Groups” (J Med Chem, 2022)
Activity calls are given as the source filed them. No cut-off for these calls is given here.

What was measured:
[1] = AUC (0 to infinity) in Sprague-Dawley rat at 15 mg/kg, po; type: ADME, organism-based; parameters: time infinity, dose 15 mg/kg, route po; conditions: in vivo
[2] = MRT in Sprague-Dawley rat at 15 mg/kg, po; type: ADME, organism-based; conditions: in vivo
[3] = Metabolic stability in Sprague-Dawley rat liver microsome assessed as intrinsic clearance measured upto 60 min by UPLC-MS/MS analysis; type: ADME; conditions: microsomes, 1 h
[4] = Metabolic stability in human liver microsome assessed as compound remaining measured after 60 min by UPLC-MS/MS analysis; type: ADME; conditions: liver microsomes, read-out: Stability
[5] = Cmax in Sprague-Dawley rat at 15 mg/kg, po; type: ADME, organism-based; parameters: dose 15 mg/kg, route po; conditions: in vivo
Homo sapiens [6] = organism: Homo sapiens; assay: Inhibition of STE (unknown origin) at 1 uM in presence of ATP at Km concentration by Mobility shift assay relative to control
[7] = Metabolic stability in Sprague-Dawley rat liver assessed as intrinsic clearance measured upto 60 min by UPLC-MS/MS analysis; type: ADME, tissue-based; conditions: read-out: CLH
MV4-11 [8] = assay: Downregulation of MEISI gene in human MV4-11 cells incubated for 24 hrs by real-time PCR analysis; type: functional, cell-based; conditions: dose 0.1-10 µM, DDE = dose-dependent effect
[9] = Metabolic stability in Beagle dog liver microsome assessed as intrinsic clearance measured upto 60 min by UPLC-MS/MS analysis; type: ADME, Canis lupus familiaris; conditions: microsomes, 1 h
MV4-11 [10] = assay: Suppression of HOXA9 gene transcription in human MV4-11 cells xenografted in BALB/c nude mouse at 15 mg/kg, iv measured at 24 hrs by RT-PCR analysis; type: functional, organism-based
[11] = AUC (0 to t) in Sprague-Dawley rat at 5 mg/kg, iv; type: ADME, organism-based; parameters: dose 5 mg/kg, route iv; conditions: in vivo
MV4-11 [12] = assay: Suppression of MEIS1 gene transcription in human MV4-11 cells xenografted in BALB/c nude mouse at 15 mg/kg, iv measured after 24 hrs by RT-PCR analysis; type: functional, organism-based
[13] = AUC (0 to t) in Sprague-Dawley rat at 15 mg/kg, po; type: ADME, organism-based; parameters: dose 15 mg/kg, route po; conditions: in vivo
Homo sapiens [14] = organism: Homo sapiens; assay: Inhibition of AGC (unknown origin) at 1 uM in presence of ATP at Km concentration by Mobility shift assay relative to control
Homo sapiens [15] = organism: Homo sapiens; assay: Inhibition of tyrosine kinase (unknown origin) at 1 uM in presence of ATP at Km concentration by Mobility shift assay relative to control

AUC(0-inf) [1]: 1480 ng·h/mL
MRT [2]: 12 h
CLint [3]: 9.7 µL/min/mg
remaining at 1 h [4]: 79%
Cmax [5]: 56.7 ng/mL
inhibition (Homo sapiens [6]): < 25%
CLint scaled [7]: 17.5 mL/min/kg
CLint [9]: 13.9 µL/min/mg
AUC(0-t) [11]: 1700 ng·h/mL
AUC(0-t) [13]: 864 ng·h/mL
inhibition (Homo sapiens [14]): < 25%
inhibition (Homo sapiens [15]): < 25%
Compound: CN(C)CCOc1ccc2ncnc(NC3CCN(CC4CN(c5ccc(S(=O)(=O)C6CC6)cc5)C4)CC3)c2n1
Activity (MV4-11 [8]): Dde
Activity (MV4-11 [10]): Active
Activity (MV4-11 [12]): Active
